According to ChEMBL document CHEMBL1201862, “PubChem BioAssay data set” (2004):
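Where inhibition never reached the appropriate level, the endpoint shown equals the highest concentration tested. Otherwise, values were interpolated linearly from a five-concentration, 48-hour dose response in 96-well plates. Abbreviation: GI50, concentration required for 50% inhibition of growth.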 Activity calls are given as the source filed them. No stated cut-off is given here; in the data, active = GI50 up to about 1.1 µM and inactive = higher.

Experiments:
Experiment in all cases: NCI-60 cell line screen, 48 h
SK-MEL-2 = tested on: SK-MEL-2
MDA-MB-231 = tested on: MDA-MB-231
MOLT-4 = tested on: MOLT-4
BT-549 = tested on: BT-549
HOP-62 = tested on: HOP-62
HCC 2998 = tested on: HCC 2998
RXF 393 = tested on: RXF 393
NCI/ADR-RES = tested on: NCI/ADR-RES
SK-MEL-28 = tested on: SK-MEL-28
U-251 = tested on: U-251
K562 = tested on: K562
SK-MEL-5 = tested on: SK-MEL-5
A549 = tested on: A549
COLO 205 = tested on: COLO 205
Malme-3M = tested on: Malme-3M
CCRF-CEM = tested on: CCRF-CEM
UO-31 = tested on: UO-31
HCT-116 = tested on: HCT-116
SF-539 = tested on: SF-539
LOX IMVI = tested on: LOX IMVI

Measured: GI50

O=[N+]([O-])c1ccc(N2N=C(c3ccc4ccccc4c3O)CC2c2ccc(Cl)cc2)c([N+](=O)[O-])c1 (centres undefined)
inactive: SK-MEL-2 33.6 µM | MDA-MB-231 20.5 µM | MOLT-4 17 µM | BT-549 > 100 µM | HOP-62 41.2 µM | HCC 2998 46.5 µM | RXF 393 28.6 µM | NCI/ADR-RES 30.6 µM | SK-MEL-28 41.8 µM | U-251 25.9 µM | K562 14.5 µM | SK-MEL-5 22.2 µM | A549 30.4 µM | COLO 205 29.6 µM | Malme-3M 21.5 µM | CCRF-CEM 14.2 µM | UO-31 > 100 µM | HCT-116 28 µM | SF-539 32.3 µM

N#Cc1sc2nc3ccccc3n2c1N
inactive: SK-MEL-2 26.1 µM | MDA-MB-231 76.4 µM | MOLT-4 31.4 µM | BT-549 49.2 µM | HOP-62 84.5 µM | LOX IMVI 40.8 µM | HCC 2998 36.2 µM | RXF 393 17.6 µM | NCI/ADR-RES > 100 µM | SK-MEL-28 > 100 µM | U-251 83.9 µM | SK-MEL-5 95.7 µM | A549 47.4 µM | COLO 205 78.7 µM | Malme-3M > 100 µM | CCRF-CEM 29.3 µM | UO-31 36.6 µM | HCT-116 > 100 µM | SF-539 55.3 µM

Cn1c(-c2cccs2)cc(-c2cccs2)c1-c1ccsc1
inactive: SK-MEL-2 34.1 µM | MDA-MB-231 > 100 µM | MOLT-4 > 100 µM | BT-549 > 100 µM | HOP-62 53 µM | LOX IMVI > 100 µM | HCC 2998 > 100 µM | RXF 393 3.64 µM | NCI/ADR-RES > 100 µM | SK-MEL-28 > 100 µM | U-251 > 100 µM | K562 > 100 µM | SK-MEL-5 27.2 µM | A549 70.5 µM | COLO 205 > 100 µM | CCRF-CEM > 100 µM | UO-31 > 100 µM | HCT-116 23.3 µM | SF-539 > 100 µM

COc1ccc(Nc2ccc3ccccc3c2-c2c(O)ccc3ccccc23)cc1
inactive: SK-MEL-2 14.4 µM | MDA-MB-231 24.7 µM | MOLT-4 10.1 µM | BT-549 24.4 µM | HOP-62 12.6 µM | LOX IMVI 17.9 µM | HCC 2998 15.7 µM | RXF 393 20.2 µM | NCI/ADR-RES 15.4 µM | SK-MEL-28 13.1 µM | U-251 22.6 µM | K562 7.23 µM | SK-MEL-5 17 µM | COLO 205 24 µM | CCRF-CEM 18.3 µM | UO-31 13.6 µM | HCT-116 17.5 µM | SF-539 25.7 µM

COc1cc([C@H]2CC(=O)C[C@H](c3cc(OC)c(OC)c(OC)c3)C23C(=O)c2ccccc2C3=O)cc(OC)c1OC
inactive: SK-MEL-2 42.4 µM | MDA-MB-231 56.9 µM | MOLT-4 29.1 µM | BT-549 91.4 µM | HOP-62 51.5 µM | HCC 2998 > 100 µM | RXF 393 32.5 µM | NCI/ADR-RES > 100 µM | SK-MEL-28 > 100 µM | U-251 41.3 µM | K562 44.2 µM | SK-MEL-5 > 100 µM | A549 > 100 µM | COLO 205 > 100 µM | Malme-3M > 100 µM | UO-31 > 100 µM | HCT-116 19.8 µM | SF-539 45.7 µM

COc1cc(C)cc2c(-c3c(O)cc(O)c4c3C[C@H](C)N[C@H]4C)cc(-c3cc(-c4c(O)cc(O)c5c4C[C@H](C)N[C@H]5C)c4cc(C)cc(OC)c4c3O)c(O)c12
inactive: SK-MEL-2 > 100 µM | MDA-MB-231 > 100 µM | MOLT-4 > 100 µM | BT-549 > 100 µM | HOP-62 72.3 µM | HCC 2998 > 100 µM | RXF 393 > 100 µM | NCI/ADR-RES > 100 µM | SK-MEL-28 > 100 µM | U-251 > 100 µM | K562 > 100 µM | SK-MEL-5 > 100 µM | A549 > 100 µM | COLO 205 > 100 µM | Malme-3M > 100 µM | CCRF-CEM > 100 µM | UO-31 > 100 µM | HCT-116 54.1 µM | SF-539 > 100 µM

Cc1ccc(S(=O)(=O)N2CCN3C(=O)c4ccccc4C32c2ccc(F)cc2)cc1 (centres undefined)
inactive: SK-MEL-2 55.6 µM | MDA-MB-231 > 100 µM | MOLT-4 23.8 µM | BT-549 > 100 µM | HOP-62 > 100 µM | HCC 2998 > 100 µM | RXF 393 65.2 µM | NCI/ADR-RES 52 µM | SK-MEL-28 71 µM | U-251 > 100 µM | K562 42.4 µM | SK-MEL-5 17.7 µM | A549 51.4 µM | COLO 205 34.9 µM | Malme-3M > 100 µM | CCRF-CEM 35.1 µM | UO-31 44.5 µM | HCT-116 42.1 µM

COc1cc(OC)c2nc3occc3c(OC)c2c1
inactive: SK-MEL-2 > 100 µM | MDA-MB-231 > 100 µM | MOLT-4 61.9 µM | BT-549 > 100 µM | HOP-62 > 100 µM | LOX IMVI 83.2 µM | HCC 2998 41.6 µM | RXF 393 80 µM | NCI/ADR-RES > 100 µM | SK-MEL-28 > 100 µM | U-251 > 100 µM | SK-MEL-5 45.7 µM | A549 > 100 µM | COLO 205 > 100 µM | Malme-3M > 100 µM | CCRF-CEM > 100 µM | UO-31 33.7 µM | HCT-116 76 µM | SF-539 > 100 µM

N#Cc1c(N)c2c(c(-c3ccccc3)c1-c1ccccc1)C(=O)N(NC(=O)c1ccccc1)C2=O
inactive: SK-MEL-2 > 100 µM | MDA-MB-231 > 100 µM | MOLT-4 40.6 µM | BT-549 > 100 µM | LOX IMVI > 100 µM | HCC 2998 > 100 µM | RXF 393 60 µM | NCI/ADR-RES 89.5 µM | SK-MEL-28 > 100 µM | U-251 > 100 µM | K562 96.8 µM | SK-MEL-5 68.7 µM | A549 > 100 µM | COLO 205 > 100 µM | Malme-3M > 100 µM | CCRF-CEM 42.3 µM | UO-31 41.9 µM | HCT-116 19.6 µM | SF-539 64.4 µM

Cn1ccc2c(c1=O)C(=O)OC2(C)C [CERPEGIN]
inactive: MDA-MB-231 > 100 µM | MOLT-4 > 100 µM | BT-549 > 100 µM | HOP-62 > 100 µM | LOX IMVI > 100 µM | HCC 2998 > 100 µM | RXF 393 > 100 µM | NCI/ADR-RES > 100 µM | SK-MEL-28 > 100 µM | U-251 > 100 µM | K562 > 100 µM | SK-MEL-5 > 100 µM | A549 > 100 µM | COLO 205 > 100 µM | Malme-3M 65.6 µM | CCRF-CEM > 100 µM | UO-31 59.2 µM | HCT-116 > 100 µM | SF-539 > 100 µM

Cc1ccc(/C=C2\N=C(N3CCCCC3)NC2=O)cc1
inactive: SK-MEL-2 > 100 µM | MDA-MB-231 > 100 µM | MOLT-4 > 100 µM | BT-549 > 100 µM | HOP-62 > 100 µM | LOX IMVI 94.4 µM | HCC 2998 58.1 µM | RXF 393 > 100 µM | NCI/ADR-RES 70.8 µM | SK-MEL-28 > 100 µM | U-251 > 100 µM | A549 > 100 µM | COLO 205 > 100 µM | Malme-3M > 100 µM | CCRF-CEM > 100 µM | UO-31 > 100 µM | HCT-116 > 100 µM | SF-539 > 100 µM

COc1ccc(-c2nnc3nc4ccccc4n3c2O)cc1
inactive: SK-MEL-2 > 100 µM | MDA-MB-231 31 µM | MOLT-4 > 100 µM | BT-549 > 100 µM | HOP-62 > 100 µM | LOX IMVI > 100 µM | HCC 2998 > 100 µM | RXF 393 7.19 µM | NCI/ADR-RES > 100 µM | SK-MEL-28 > 100 µM | U-251 90.2 µM | SK-MEL-5 > 100 µM | A549 > 100 µM | COLO 205 > 100 µM | Malme-3M > 100 µM | CCRF-CEM > 100 µM | UO-31 > 100 µM | HCT-116 > 100 µM | SF-539 > 100 µM

O=C1/C(=C/c2ccccc2)N=C(c2ccccc2)N1n1c(-c2ccccc2)nc2ccccc2c1=O
inactive: MDA-MB-231 > 100 µM | MOLT-4 30.6 µM | BT-549 31.6 µM | HOP-62 > 100 µM | LOX IMVI 35.6 µM | HCC 2998 > 100 µM | RXF 393 86.5 µM | NCI/ADR-RES 63.8 µM | SK-MEL-28 74.3 µM | U-251 41.8 µM | K562 61.7 µM | SK-MEL-5 38 µM | A549 47.6 µM | COLO 205 > 100 µM | Malme-3M > 100 µM | CCRF-CEM 32.8 µM | UO-31 83.2 µM | HCT-116 53 µM | SF-539 83 µM

CCOC(=O)c1nc2ccccc2nc1NCc1ccc(OC)c(OC)c1
inactive: MDA-MB-231 > 100 µM | MOLT-4 > 100 µM | BT-549 > 100 µM | HOP-62 > 100 µM | LOX IMVI > 100 µM | HCC 2998 > 100 µM | RXF 393 27.8 µM | NCI/ADR-RES > 100 µM | SK-MEL-28 > 100 µM | U-251 > 100 µM | K562 > 100 µM | SK-MEL-5 > 100 µM | A549 > 100 µM | COLO 205 > 100 µM | Malme-3M > 100 µM | CCRF-CEM > 100 µM | UO-31 > 100 µM | HCT-116 > 100 µM | SF-539 > 100 µM

O=C(Cc1csc(N/N=C2\C(=O)Nc3ccccc32)n1)Nc1ccccc1
inactive: SK-MEL-2 91.8 µM | MDA-MB-231 28.8 µM | MOLT-4 42.5 µM | BT-549 41.7 µM | HOP-62 18.1 µM | LOX IMVI 46.5 µM | HCC 2998 31.6 µM | RXF 393 62.7 µM | NCI/ADR-RES 20 µM | SK-MEL-28 21 µM | U-251 22.6 µM | SK-MEL-5 15.3 µM | A549 39.9 µM | COLO 205 55.1 µM | UO-31 25.3 µM | HCT-116 21.4 µM | SF-539 26.4 µM
